The source of these data is US6759557B2, “Melanin production inhibitors and skincare products containing such inhibitors” (Takasago International Corporation, priority 2001, dated 2004).

The experiment concerns melanoma cells B-16. Put plainly: Inhibiting effect on melanin synthesis in pigment cells (whiteness of cell residue observed by eye). The format is cell-based. Further details: key to whiteness of cells rated by eye (melanin synthesis inhibition): −: same colour as the comparative solvent example (black); +: slight colour difference from the comparative solvent example (black grey); ++: clear colour difference from the comparative solvent example (white grey); +++: no colour in the cells (white). The following applies: for whiteness of cells rated by eye (melanin synthesis inhibition): 4 days, B-16 melanoma cells. As for the experimental part:
In plastic culture flasks ([…]), 5×10^4 of melanoma cells B-16 were respectively inoculated and cultivated at 37° C. in DMEM culture media each containing 10% of blood serum (Nippon Suisan Co. Ltd) in the presence of 5% of carbon dioxide. After two days of cultivation, test samples diluted with ethanol were added to the culture media, so as to set their concentrations, respectively, at 1.6, 3.1 and 6.3 ppm for the compounds of Formula (1) where X is —CO— or —CHOH—, and at 0.8, 1.6 and 3.1 ppm for the compounds of Formula (1) where X is —CO—CHOH—. The culture media were further cultivated for 4 days.
When the cultivation was terminated, the culture media were removed from the respective flasks and the remaining cells were rinsed with a phosphate buffer solution (PBS hereinafter). The cells in each flask were treated with a culture medium containing trypsin and EDTA (ethylenediaminetetracetic acid) to yield cell suspensions. The latter were subjected to centrifugation, and the cells were recovered.
The obtained cells were once washed with PBS. The residues were observed by eye, and their whiteness was rated as below.

For the molecule `CC1CCCCCCCCCCCCC(=O)C1` (stereo not drawn) [1-3-methylcyclopentadecanone], the “whiteness of cells rated by eye (melanin synthesis inhibition)” value (“whiteness … (melanin synthesis inhibition)” below) is “+” (1.6 ppm in culture medium), “++” (3.1 ppm in culture medium) and “+++” (6.3 ppm in culture medium).
On to `O=C1CCCCCCCCC=CCCCCCCC1O` (stereo not drawn) [2-hydroxy-9-cyclooctadecenone], for which the “whiteness … (melanin synthesis inhibition)” value was “+” (0.8 ppm in culture medium), “++” (1.6 ppm in culture medium) and “+++” (3.1 ppm in culture medium).
As to `OC1CCCCCCCCCCCCCCC1` [cyclohexadecanol], the “whiteness … (melanin synthesis inhibition)” value reads like this: (1.6 ppm in culture medium) “+”; (3.1 ppm in culture medium) “++”; (6.3 ppm in culture medium) “+++”.
For `O=C1CCCCCCCCCCCCCC1O` (stereo not drawn) [2-hydroxycyclopentadecanone, reference compound] the same measures were “−”, “−” and “+++”.
For `O=C1CCCCCCCC=CCCCCCC1O` (stereo not drawn) [2-hydroxy-8-cyclohexadecenone], the “whiteness … (melanin synthesis inhibition)” value runs as follows: (1.6 ppm in culture medium) “−”; (3.1 ppm in culture medium) “+”.
In the case of `OC1CCCCCCCCCCC1` [cyclododecanol, reference compound], the “whiteness … (melanin synthesis inhibition)” value was “−” (3.1 ppm in culture medium) and “+” (6.3 ppm in culture medium).
For `CCCCCCCCCCCCC(C)=O` [2-tetradecanone, reference compound] the same measures were “−” and “−”.
In the case of `O=C1CCCCCCCCC=CCCCCCCCCC1` (mixture of isomers) [10(EZ)-cycloeicosenone], the “whiteness … (melanin synthesis inhibition)” value runs as follows: (1.6 ppm in culture medium) “++”; (3.1 ppm in culture medium) “+++”; (6.3 ppm in culture medium) “+++”.
As to `O=C1CCCCCCCCCCCCCC1` [cyclopentadecanone], the “whiteness … (melanin synthesis inhibition)” value is, setting by setting: (1.6 ppm in culture medium) “+”; (3.1 ppm in culture medium) “++”; (6.3 ppm in culture medium) “+++”.
Take `O=C1CCCCCCCCCC=CCCCCCCCC1O` (stereo not drawn) [2-hydroxy-10-cycloeicosenone]: the “whiteness … (melanin synthesis inhibition)” value is “++” (0.8 ppm in culture medium), “+++” (1.6 ppm in culture medium) and “+++” (3.1 ppm in culture medium).
`O=C1CCCCCCCCCCCCCCC=CCCCCCCCCCCCCC1O` (stereo not drawn) [2-hydroxy-15-cyclotriacontenone, reference compound]: the “whiteness … (melanin synthesis inhibition)” value (3.1 ppm in culture medium) is given as “−”.
In the case of `O=C1CCCCCCCCCCCCCCCC1` [cycloheptadecanone], the “whiteness … (melanin synthesis inhibition)” value by setting is: (1.6 ppm in culture medium) “+”; (3.1 ppm in culture medium) “++”; (6.3 ppm in culture medium) “+++”.
Turning to `OC1CCCC=CCCCCCCCCCC1` (mixture of isomers) [5(EZ)-cyclohexadecenol], the “whiteness … (melanin synthesis inhibition)” value (1.6 ppm in culture medium) is recorded as “+”, the “whiteness … (melanin synthesis inhibition)” value (3.1 ppm in culture medium) was “++” and the “whiteness … (melanin synthesis inhibition)” value (6.3 ppm in culture medium) was “+++”.
For the molecule `CC(=O)CCC1=C(C)CCCC1(C)C` [dihydro-β-ionone, reference compound], the “whiteness … (melanin synthesis inhibition)” value by setting is: (1.6 ppm in culture medium) “−”; (3.1 ppm in culture medium) “+”; (6.3 ppm in culture medium) “++”.
As to `CCCCCCCCCCCCCC(=O)CC` [3-hexadecanone, reference compound], the “whiteness … (melanin synthesis inhibition)” value by setting is: (3.1 ppm in culture medium) “−”; (6.3 ppm in culture medium) “−”.
As to `CC(O)CCC1C(C)CCCC1(C)C` (stereo not drawn) [tetrahydroionol, reference compound], the “whiteness … (melanin synthesis inhibition)” value reads like this: (1.6 ppm in culture medium) “−”; (3.1 ppm in culture medium) “+”; (6.3 ppm in culture medium) “++”.
Take `OC1CCCCCCCCCCCCCCCC1` [cycloheptadecanol]: the “whiteness … (melanin synthesis inhibition)” value is given as “+” (1.6 ppm in culture medium), “++” (3.1 ppm in culture medium) and “+++” (6.3 ppm in culture medium).
Turning to `OC1CCCCCCCC=CCCCCCCC1` (mixture of isomers) [9(EZ)-cycloheptadecenol], the “whiteness … (melanin synthesis inhibition)” value by setting is: (1.6 ppm in culture medium) “+”; (3.1 ppm in culture medium) “++”; (6.3 ppm in culture medium) “+++”.
In the case of `CC1/C=C/CCCCCCCCCCC(=O)CC1` (stereo not drawn) [5(E)-4-methylcyclohexadecenone], the “whiteness … (melanin synthesis inhibition)” value reads like this: (1.6 ppm in culture medium) “+”; (3.1 ppm in culture medium) “++”; (6.3 ppm in culture medium) “+++”.
Regarding `O=C1CCCCCCCCCCCCCCCCCCC1O` (stereo not drawn) [2-hydroxycycloeicosanone], the “whiteness … (melanin synthesis inhibition)” value is, setting by setting: (0.8 ppm in culture medium) “++”; (1.6 ppm in culture medium) “+++”; (3.1 ppm in culture medium) “+++”.
Turning to `CC1C=CCCCCCCCCCCC(O)CC1` (mixture of isomers) [5(EZ)-4-methylcyclohexadecenol], the “whiteness … (melanin synthesis inhibition)” value by setting is: (1.6 ppm in culture medium) “+”; (3.1 ppm in culture medium) “++”; (6.3 ppm in culture medium) “+++”.
For `OC1CCCCCCCCCCCCCC1` [cyclopentadecanol] the same measures were “+”, “++” and “+++”.
`O=C1CCCCCCCCCCCC=CCCCCCCCCCC1O` (stereo not drawn) [2-hydroxy-12-cyclotetracosenone]: the “whiteness … (melanin synthesis inhibition)” value (0.8 ppm in culture medium) is “++”, the “whiteness … (melanin synthesis inhibition)” value (1.6 ppm in culture medium) is reported as “+++” and the “whiteness … (melanin synthesis inhibition)” value (3.1 ppm in culture medium) is given as “+++”.
Consider `CC1C=CCCCCCCCCCCC(=O)CC1` (mixture of isomers) [5(EZ)-4-methylcyclohexadecenone], for which the “whiteness … (melanin synthesis inhibition)” value reads like this: (1.6 ppm in culture medium) “+”; (3.1 ppm in culture medium) “++”; (6.3 ppm in culture medium) “+++”.
As to `OC1CCCCCCCCC=CCCCCCCCCC1` (mixture of isomers) [10(EZ)-cycloeicosenol], the “whiteness … (melanin synthesis inhibition)” value reads like this: (1.6 ppm in culture medium) “++”; (3.1 ppm in culture medium) “+++”; (6.3 ppm in culture medium) “+++”.
Regarding `O=C1CCCCCCCCCCCCCCC1O` (stereo not drawn) [2-hydroxycyclohexadecanone], the “whiteness … (melanin synthesis inhibition)” value runs as follows: (1.6 ppm in culture medium) “−”; (3.1 ppm in culture medium) “+”.
Turning to `OC[C@H]1O[C@@H](Oc2ccc(O)cc2)[C@H](O)[C@@H](O)[C@@H]1O` [arbutin, reference compound], the “whiteness … (melanin synthesis inhibition)” value was “−” (1.6 ppm in culture medium), “+” (3.1 ppm in culture medium) and “++” (6.3 ppm in culture medium). Further, the “melanin synthesis inhibiting activity (in words)” value (concentration not given) is given as “much weaker melanin-synthesis inhibiting activities”.
